Results published in the supplement of paper PMC8612539.
Converted amounts (≈) assume the structure as drawn.

Test system: Pasteurella multocida
Test: minimum inhibitory concentration (MIC)
Protocol: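 Broth microdilution MIC (Sensititre BOPO7F bovine plate, CLSI methods) of 19 antimicrobials against field isolates of P. multocida, M. haemolytica, H. somni (deep nasopharyngeal swabs) and E. coli, Enterococcus spp. (rectal swabs) from weaned dairy heifers. Incubation 16-24 h at 35 C. MIC is the lowest concentration preventing visible growth. Values with <= or > lie at the tested range limits. Trimethoprim-sulfamethoxazole is given as the trimethoprim component of a 1:19 mixture.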

CC1(C)S[C@@H]2[C@H](NC(=O)[C@H](N)c3ccccc3)C(=O)N2[C@H]1C(=O)O [Ampicillin]
Conditions	minimum inhibitory concentration [µg/mL]
isolate (source animal id): 10	≤ 0.25
isolate (source animal id): 11	≤ 0.25
isolate (source animal id): 12	≤ 0.25
isolate (source animal id): 19	≤ 0.25
isolate (source animal id): 23	≤ 0.25
isolate (source animal id): 26	≤ 0.25
isolate (source animal id): 98	≤ 0.25
isolate (source animal id): 104	≤ 0.25
isolate (source animal id): 115	≤ 0.25
isolate (source animal id): 117	≤ 0.25
isolate (source animal id): 118	≤ 0.25
isolate (source animal id): 121	≤ 0.25
isolate (source animal id): 124	0.5 (≈ 1.43 µM)
isolate (source animal id): 125	≤ 0.25
isolate (source animal id): 128	≤ 0.25
isolate (source animal id): 131	≤ 0.25
isolate (source animal id): 135	≤ 0.25
isolate (source animal id): 136	≤ 0.25
isolate (source animal id): 140	≤ 0.25
isolate (source animal id): 144	≤ 0.25
isolate (source animal id): 146	≤ 0.25
isolate (source animal id): 150	≤ 0.25
isolate (source animal id): 151	≤ 0.25
isolate (source animal id): 153	≤ 0.25
isolate (source animal id): 155	≤ 0.25
isolate (source animal id): 157	≤ 0.25
isolate (source animal id): 160	≤ 0.25
isolate (source animal id): 164	≤ 0.25
isolate (source animal id): 165	≤ 0.25
isolate (source animal id): 167	≤ 0.25
isolate (source animal id): 168	≤ 0.25
isolate (source animal id): 169	≤ 0.25
isolate (source animal id): 170	8 (≈ 22.9 µM)
isolate (source animal id): 171	≤ 0.25
isolate (source animal id): 172	≤ 0.25
isolate (source animal id): 173	≤ 0.25
isolate (source animal id): 174	≤ 0.25
isolate (source animal id): 175	≤ 0.25
isolate (source animal id): 176	≤ 0.25
isolate (source animal id): 177	≤ 0.25
isolate (source animal id): 178	≤ 0.25
isolate (source animal id): 179	≤ 0.25
isolate (source animal id): 182	≤ 0.25
isolate (source animal id): 192	≤ 0.25
isolate (source animal id): 193	≤ 0.25
isolate (source animal id): 195	≤ 0.25
isolate (source animal id): 196	≤ 0.25
isolate (source animal id): 197	≤ 0.25
isolate (source animal id): 198	≤ 0.25
isolate (source animal id): 199	≤ 0.25
isolate (source animal id): 200	≤ 0.25
isolate (source animal id): 201	≤ 0.25
isolate (source animal id): 203	≤ 0.25
isolate (source animal id): 204	≤ 0.25
isolate (source animal id): 205	≤ 0.25
isolate (source animal id): 206	≤ 0.25
isolate (source animal id): 207	≤ 0.25
isolate (source animal id): 208	≤ 0.25
isolate (source animal id): 209	≤ 0.25
isolate (source animal id): 210	≤ 0.25
isolate (source animal id): 213	≤ 0.25
isolate (source animal id): 216	≤ 0.25
isolate (source animal id): 223	≤ 0.25
isolate (source animal id): 227	≤ 0.25
isolate (source animal id): 229	≤ 0.25
isolate (source animal id): 233	≤ 0.25
isolate (source animal id): 234	≤ 0.25
isolate (source animal id): 237	≤ 0.25
isolate (source animal id): 241	≤ 0.25
isolate (source animal id): 245	≤ 0.25
isolate (source animal id): 247	≤ 0.25
isolate (source animal id): 250	≤ 0.25
isolate (source animal id): 254	≤ 0.25
isolate (source animal id): 255	≤ 0.25
isolate (source animal id): 258	≤ 0.25
isolate (source animal id): 261	≤ 0.25
isolate (source animal id): 262	≤ 0.25
